Experimental data published in patent US6593306B1, “Methods for modulation and inhibition of telomerase” (Board of Regents, The University of Texas Systems, priority 1995, dated 2003).
pIC50: −log10 of the molar value. “And” between values parts separate entries of the source, which are not always exact repeats. Equal entries are not always repeated. One block for each compound: values may come before it.

Tests used:
Assay type in all cases: biochemical
[1] = biological target: T1, human cancer telomerase (Homo sapiens, UniProt O14746); experiment: Nucleoside triphosphate as telomerase substrate, dGTP replaced in modified reaction; conditions: modified assay; 1 mM dTTP, 3.12 μM [α-32P]dATP
T1 construct: endogenous in cells; host or cells: human cancer cells
T1 sequence (O14746 whole entry): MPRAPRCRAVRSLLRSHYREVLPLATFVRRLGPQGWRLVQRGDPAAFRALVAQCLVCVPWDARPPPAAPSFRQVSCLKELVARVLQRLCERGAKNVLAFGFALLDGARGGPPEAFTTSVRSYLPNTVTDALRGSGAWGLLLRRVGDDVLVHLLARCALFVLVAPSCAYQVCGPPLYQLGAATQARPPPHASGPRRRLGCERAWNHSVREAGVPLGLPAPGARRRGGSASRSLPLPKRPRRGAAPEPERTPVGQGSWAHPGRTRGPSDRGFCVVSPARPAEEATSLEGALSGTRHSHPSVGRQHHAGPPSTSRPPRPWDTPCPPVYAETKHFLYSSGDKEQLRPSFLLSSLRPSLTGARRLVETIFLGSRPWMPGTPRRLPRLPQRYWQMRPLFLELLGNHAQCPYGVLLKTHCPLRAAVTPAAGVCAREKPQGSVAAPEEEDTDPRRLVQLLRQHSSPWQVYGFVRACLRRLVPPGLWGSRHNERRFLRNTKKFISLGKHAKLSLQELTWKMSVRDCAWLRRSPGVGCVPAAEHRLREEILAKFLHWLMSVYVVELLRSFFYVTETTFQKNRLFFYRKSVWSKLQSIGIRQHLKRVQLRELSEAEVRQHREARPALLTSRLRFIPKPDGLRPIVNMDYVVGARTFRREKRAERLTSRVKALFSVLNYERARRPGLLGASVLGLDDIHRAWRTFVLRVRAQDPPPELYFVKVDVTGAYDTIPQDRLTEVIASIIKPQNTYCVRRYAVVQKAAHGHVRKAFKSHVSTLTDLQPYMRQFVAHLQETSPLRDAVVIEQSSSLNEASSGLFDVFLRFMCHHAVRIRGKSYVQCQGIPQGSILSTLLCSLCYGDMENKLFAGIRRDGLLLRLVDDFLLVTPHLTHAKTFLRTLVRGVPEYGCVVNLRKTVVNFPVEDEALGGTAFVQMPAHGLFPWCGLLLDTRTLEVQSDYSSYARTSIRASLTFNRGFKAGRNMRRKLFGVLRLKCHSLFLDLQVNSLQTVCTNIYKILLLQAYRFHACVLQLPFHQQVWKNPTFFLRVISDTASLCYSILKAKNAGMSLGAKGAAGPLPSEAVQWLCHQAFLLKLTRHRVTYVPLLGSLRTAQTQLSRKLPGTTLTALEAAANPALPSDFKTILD
T1 sequence (O60832 whole entry partner): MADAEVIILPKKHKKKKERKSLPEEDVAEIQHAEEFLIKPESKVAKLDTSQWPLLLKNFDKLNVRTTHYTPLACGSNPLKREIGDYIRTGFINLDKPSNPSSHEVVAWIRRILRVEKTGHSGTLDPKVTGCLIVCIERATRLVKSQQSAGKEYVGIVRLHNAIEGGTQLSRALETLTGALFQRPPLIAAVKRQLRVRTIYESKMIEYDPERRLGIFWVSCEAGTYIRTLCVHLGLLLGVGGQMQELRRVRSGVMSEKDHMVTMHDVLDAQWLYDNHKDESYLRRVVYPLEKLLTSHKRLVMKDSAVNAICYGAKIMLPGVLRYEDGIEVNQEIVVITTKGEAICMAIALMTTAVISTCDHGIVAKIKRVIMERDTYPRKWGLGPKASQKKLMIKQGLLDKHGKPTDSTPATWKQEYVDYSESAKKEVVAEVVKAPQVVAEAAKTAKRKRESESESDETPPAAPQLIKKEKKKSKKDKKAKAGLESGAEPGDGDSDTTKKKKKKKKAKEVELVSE
T1 sequence (Q9NPE3 whole entry partner): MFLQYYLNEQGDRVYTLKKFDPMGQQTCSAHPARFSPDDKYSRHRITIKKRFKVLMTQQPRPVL
T1 sequence (Q9NX24 whole entry partner): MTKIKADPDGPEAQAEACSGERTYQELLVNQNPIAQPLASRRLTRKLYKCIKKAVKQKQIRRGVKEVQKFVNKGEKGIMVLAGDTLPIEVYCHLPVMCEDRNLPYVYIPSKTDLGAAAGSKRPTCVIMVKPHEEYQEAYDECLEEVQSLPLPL
T1 sequence (Q9NY12 whole entry partner): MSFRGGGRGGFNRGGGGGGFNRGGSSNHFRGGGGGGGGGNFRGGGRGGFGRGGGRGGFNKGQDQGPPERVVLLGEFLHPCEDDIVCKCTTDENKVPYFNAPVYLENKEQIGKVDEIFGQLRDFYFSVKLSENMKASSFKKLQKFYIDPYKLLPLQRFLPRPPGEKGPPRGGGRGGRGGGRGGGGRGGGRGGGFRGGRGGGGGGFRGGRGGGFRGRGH

[2] = biological target: T1, human cancer telomerase; experiment: Nucleoside triphosphate as telomerase substrate, dATP replaced in conventional reaction; conditions: for incorporation into telomeric ladders, replacing dATP: conventional assay, 0.125-2 mM tested; for Substrate of 293 Telomerase: dATP analogs
From the text: As described in Section 2, telomerase catalyzes the incorporation of dATP, dTTP and [α-^32P]dGTP into a (TTAGGG)3 primer. In order to determine whether dATP analog can be incorporated into telomere, native dATP in the standard telomerase reaction is replaced with various concentrations of dATP analogs. Following the reaction, telomeric products are isolated and analyzed as described in Section 2. Similarly, native dTTP in the standard telomerase reaction can be replaced by a structurally modified dTTP analog to test whether the dTTP analog can be used as a telomerase substrate.

[3] = biological target: T2, human 293 cell telomerase (Homo sapiens, UniProt O14746); experiment: Modified telomerase assay (32P-dATP as radiolabeled substrate); conditions: for Inhibition of 293 cell telomerase, modified assay: competing radioactive nucleotide 3.12 μM [α32P]dATP
T2 construct: with 20 μl of S100 enzyme extract; endogenous in cells; host or cells: 293 cells (transformed human embryonic kidney), S100 extract
T2 sequence (O14746 whole entry): as the sequence (O14746 whole entry) above
T2 sequence (O60832 whole entry partner): as the sequence (O60832 whole entry partner) above
T2 sequence (Q9NPE3 whole entry partner): as the sequence (Q9NPE3 whole entry partner) above
T2 sequence (Q9NX24 whole entry partner): as the sequence (Q9NX24 whole entry partner) above
T2 sequence (Q9NY12 whole entry partner): as the sequence (Q9NY12 whole entry partner) above
Description: (§1) Telomerase was prepared from transformed human embryonic kidney 293 cell line. Human embryonic kidney 293 cells were grown in Joklik's modified MEM niedium (Sigma, St Louis, Mo.) supplemented with 5% fetal bovine serum at 37° C. in a humidified atmosphere with 5% CO2. The cells were subcultured at 1-2×10^5 cells/ml twice a week. When the cells grew to approximately 1×10^6 cells/ml, the cells (˜2×10^9 cells) were centrifuged and transferred into polypropylene centrifuge (50 ml) tubes and kept on ice. The cells were then centrifuged in a (Beckman GS-6R) centrifuge at 1200 RPM for 10 minutes at 4° C., and resuspended in PBS. The washed cells were resuspended in 15 ml Hypobuffer Mix (10 mM HEPES, pH 8.0, 3 mM KCl, 1 mM MgCl2, 1 mM dithiothreitol, 1 μM leupeptin, 0.1 mM PMSF, 10 μM pepstatin, 0.83 μg/ml chymostatin, 0.83 μg/ml antipain, and 43.2 units/ml RNase Guard) and centrifuged. The cell pellets were resuspended in 0.75×volumes Hypobuffer [Hypobuffer Mix+40 units/ml RNase Guard (Pharmacia, N.J.) to allow the cells to swell. The cell suspensions were homogenized to allow the telomerase to “leak” into the cytosolic fraction. The lysate was then poured into new, autoclaved, 3 ml polyallomer ultracentrifuge tubes and centrifuged at 100,000×g for 1 hour at 4° C. A top lipid layer was carefully removed and discarded, and the supernatant was collected. 1/50 of the volume of 5 M NaCl was added to the clear supernatant fluid to achieve a final concentration of 0.1 M. Sterile glycerol was added until the final glycerol concentration was 20%. The enzyme solution was aliquoted into Eppendorf tubes and quickly frozen in liquid nitrogen and stored at −70° C.
In the conventional telomerase assay, the concentrations of both non-radiolabeled nucleotides, dATP and dTTP, are 1 mM, and the concentration of the radiolabeled [^32P]dGTP is 1.56 μM. Because of the high concentration of dATP and dTTP, the standard assay may not be suitable for determining the potential telomerase inhibition of any “Adenine or Thymine” analogs. […] All other chemicals and reaction conditions are identical to the conventional assay.

[4] = biological target: T2, human 293 cell telomerase; experiment: Conventional telomerase assay (32P-dGTP as radiolabel substrate); conditions: for Inhibition of 293 Telomerase, Conventional Assay *dGTP: up to 2 mM
Description: as §1
The assay is based on the ability of the telomerase enzyme in the S100 fractions to recognize an 18-base DNA primer with the DNA sequence (TTAGGG)3. DNA polymerization initiates from the 3′-OH group of the oligonucleotide. By reading from its complementary internal RNA template, telomerase adds a repeated set of 5′-TTAGGG-3′ to the original 18-base primer. Non-synchronous “starts” and “terminations” among the different enzyme complexes result in a degenerative set of different length DNA primers occurring in 6-base increments. Incorporation of [α-^32P]dGTP at the guanine positions of the 5′-TTAGGG-3′ sequence allows the newly synthesized DNA fragments to be visualized by autoradiography. The resulting image forms the characteristic “ladder” structure that is used to identify telomerase activity. The images are scanned using a phosphoimager or laser densitometer (Molecular Dynamics, Sunnyvale, Calif.). Comparisons of the total volumes under the corresponding peaks are used to quantitate the total amount of [α-^32P] incorporated in the primer extension reaction.
The telomerase assay was initiated by mixing 20 μl of 2×reaction mix (100 mM Tris-OAc, pH 8.5, 100 mM KOAc, 10 mM β-mercaptoethanol, 2 mM spermidine, 2 mM MgCl2, 2 mM dATP, 2 mM dTTP, 2 μM oligo primer, potential inhibitors of interest at the appropriate concentration, and 50 μCi [α^32-P]dGTP) with 20 μl of S100 enzyme extract. The reaction mixture was then incubated at 30° C. for 1 hour. The reaction was stopped by incubating sequentially with 50 μl of the stop solution (10 mM Tris pH 7.5, 20 mM EDTA, 0.1 mg/ml RNase A) and 50 μl of deproteinase solution (10 mM Tris pH 7.5, 0.5% SDS, 0.3 mg/ml Proteinase K). The mixture was extracted with 50% phenol/50% chloroform (v/v). The DNA was then precipitated by adding 2.5×volumes of cold EtOH and letting it stand overnight at −70° C. The DNAs were separated on an 8% polyacrylamide/7M urea denaturing gel at 1600 V for 1.5 hours. The gel was dried and exposed to Kodak XAR-5 film to gel in −70° C. Typical autoradiographic exposures required 3-14 days.

[5] = biological target: T3, human telomerase (Homo sapiens, UniProt O14746); experiment: Cell-free telomerase inhibition, conventional or modified assay not stated; conditions: for pIC50: Summary values, assay variant not stated, read-out: IC50
T3 construct: telomerase in S100 extracts of transformed human fetal kidney tumor 293 cells (a processive telomerase); endogenous in cells; host or cells: human cells, (S100 extract)
T3 sequence (O14746 whole entry): as the sequence (O14746 whole entry) above
T3 sequence (O60832 whole entry partner): as the sequence (O60832 whole entry partner) above
T3 sequence (Q9NPE3 whole entry partner): as the sequence (Q9NPE3 whole entry partner) above
T3 sequence (Q9NX24 whole entry partner): as the sequence (Q9NX24 whole entry partner) above
T3 sequence (Q9NY12 whole entry partner): as the sequence (Q9NY12 whole entry partner) above
Description: Selected nucleoside triphosphates were tested in one or both of the “conventional” or “modified” telomerase assays described in Methods using the human processive and the CHO non-processive telomerases. Initially, three chain-terminators were selected: 2′,3′-dideoxythymidine triphosphate (ddTTP), 3′-fluoro-2′,3′-dideoxythymidine triphosphate (F-ddTTP), and 3′-azido-2′-, 3′-dideoxythymidine triphosphate (AZ-ddTTP) as prototype agents to investigate whether they could inhibit telomerase activity. The three compounds are dTTP analogs without a 3′-OH group for subsequent chain elongation. They may either incorporate into the telomere sequence and terminate further chain elongation or compete directly with dTTP for the substrate binding site in the telomerase reaction. In either case, telomerase activity is inhibited.

[6] = 0.125 mM, read-out: % of Control
[7] = 0.25 mM, read-out: % of Control
[8] = [α-32P]dGTP 1.56 μM, TTP and dATP 1 mM

SMILES: Nc1nc2c(ccn2[C@H]2C[C@H](O)[C@@H](COP(=O)(O)OP(=O)(O)OP(=O)(O)O)O2)c(=S)[nH]1 [Compound 8, 6-Thio-7-deaza-2′-deoxyguanosine Triphosphate]
incorporation into telomeric ladders, replacing dGTP [1]: incorporation

SMILES: Nc1ncnc2c1ncn2[C@H]1C[C@H](O)[C@@H](COP(=O)(O)OP(=O)(O)CP(=O)(O)O)O1 [NA004, 2′-Deoxyadenosine-5′-β,γ-Methylene Triphosphate]
incorporation into telomeric ladders, replacing dATP [2]: incorporated
Substrate of 293 Telomerase [2]: Replace dATP Is a substrate No substrate inhibition
% of Control ([3]; 0.125 mM): 6%
% of Control ([3]; 0.25 mM): 1.7%
% of Control ([3]; 0.5 mM): 0%
% of Control ([3]; 1.0 mM): 0%
% of Control ([3]; 2 mM): 0%
Inhibition of 293 cell telomerase, modified assay [3]: concentration-dependent inhibition
% of Control ([4]; 0.125 mM): 70%
% of Control ([4]; 0.25 mM): 72%
% of Control ([4]; 0.5 mM): 88%
% of Control ([4]; 1.0 mM): 98%
% of Control ([4]; 2.0 mM): 99%
Inhibition of 293 Telomerase, Conventional Assay *dGTP [4]: No Inhibition (Up to 2 mM)

SMILES: Nc1ncnc2c1ncn2[C@H]1C[C@H](O)[C@@H](COP(O)(=S)OP(=O)(O)OP(=O)(O)O)O1 (stereo partly drawn) [NA006, 2′-Deoxyadenosine-5′—O—(1-Thio-Triphosphate)]
incorporation into telomeric ladders, replacing dATP [2]: incorporated
Substrate of 293 Telomerase [2]: Is a substrate No substrate inhibition
remaining activity at 125 µM [3, 6]: 0%
remaining activity at 250 µM [3, 7]: 0%
remaining activity at 500 µM ([3]; 0.5 mM, read-out: % of Control): 0%
remaining activity at 1000 µM ([3]; 1.0 mM, read-out: % of Control): 0%
remaining activity at 2000 µM ([3]; 2 mM, read-out: % of Control): 0%
Inhibition of 293 cell telomerase, modified assay [3]: concentration-dependent inhibition
remaining activity at 125 µM [4, 6]: 120%
remaining activity at 250 µM [4, 7]: 103%
remaining activity at 500 µM ([4]; 0.5 mM, read-out: % of Control): 103%
remaining activity at 1000 µM ([4]; 1.0 mM, read-out: % of Control): 100%
remaining activity at 2000 µM ([4]; 2.0 mM, read-out: % of Control): 113%
Inhibition of 293 Telomerase, Conventional Assay *dGTP [4]: No Inhibition (up to 2 mM)

SMILES: Nc1ncnc2c1ncn2[C@H]1CC[C@@H](COP(=O)(O)OP(=O)(O)OP(=O)(O)O)O1 [NA007, 2′,3′-Dideoxyadenosine-5′-Triphosphate]
incorporation into telomeric ladders, replacing dATP [2]: no apparent NA007 incorporation was detected
Substrate of 293 Telomerase [2]: No product formed using (TTAGGG)^3 primer
remaining activity at 125 µM [3, 6]: 0%
remaining activity at 250 µM [3, 7]: 0%
remaining activity at 500 µM ([3]; 0.5 mM, read-out: % of Control): 0%
remaining activity at 1000 µM ([3]; 1.0 mM, read-out: % of Control): 0%
remaining activity at 2000 µM ([3]; 2 mM, read-out: % of Control): 0%
inhibition of human telomerase activity ([5]; 1 mM): inhibited
remaining activity at 125 µM [4, 6]: 118%
remaining activity at 250 µM [4, 7]: 116%
remaining activity at 500 µM ([4]; 0.5 mM, read-out: % of Control): 141%
remaining activity at 1000 µM ([4]; 1.0 mM, read-out: % of Control): 126%
remaining activity at 2000 µM ([4]; 2.0 mM, read-out: % of Control): 133%
Inhibition of 293 Telomerase, Conventional Assay *dGTP [4]: No Inhibition (up to 2 mM)

SMILES: Nc1nc2c(ncn2[C@H]2C[C@H](O)[C@@H](COP(O)(=S)OP(=O)(O)OP(=O)(O)O)O2)c(=O)[nH]1 (stereo partly drawn) [NA013, 2′-Deoxyguanosine-5′-O-(1-thiotriphosphate)]
pIC50 [5]: 4.09
incorporation into telomeric ladders, replacing dGTP [1]: incorporated
remaining activity at 125 µM [4, 6]: 75%
remaining activity at 250 µM [4, 7]: 47%
remaining activity at 500 µM ([4]; 0.5 mM, read-out: % of Control): 0%
remaining activity at 1000 µM ([4]; 1.0 mM, read-out: % of Control): 0%
remaining activity at 2000 µM ([4]; 2.0 mM, read-out: % of Control): 0%
pIC50 ([4]; 293 cell telomerase): > 3.90
Inhibition of 293 Telomerase, Conventional Assay *dGTP [4]: concentration-dependent inhibition

More lines, main results first:

remaining activity at 12.5 µM ([4]; 0.0125 mM, read-out: % of Control): 0%
remaining activity at 25 µM ([4]; 0.025 mM, read-out: % of Control): 0%
remaining activity at 50 µM ([4]; 0.05 mM, read-out: % of Control): 0%
remaining activity at 100 µM ([4]; 0.1 mM, read-out: % of Control): 0%
remaining activity at 200 µM ([4]; 0.2 mM, read-out: % of Control): 0%
remaining activity at 500 µM ([4]; 0.5 mM, read-out: % of Control): 0%
remaining activity at 1000 µM ([4]; 1.0 mM, read-out: % of Control): 0%
pIC50 [4, 8]: > 3.90
concentration at which telomerase activity is completely inhibited ([4]; lowest concentration tested): ≤ 12.5 µM
SMILES: Nc1nc2c(ncn2[C@H]2CC[C@@H](COP(=O)(O)OP(=O)(O)OP(=O)(O)O)O2)c(=O)[nH]1 [NA020, 2′,3′-Dideoxyguanosine-5′-Triphosphate]
incorporation into telomeric ladders, replacing dGTP [1]: no apparent NA020 incorporation was detected

concentration above which no telomerase activity was detected ([2]; dATP replaced, 1 mM TTP, 1.56 μM [α-32P]dGTP): > 1.5 mM
remaining activity at 1 µM ([3]; 1.0 μM, read-out: % of Control): 69%
remaining activity at 2.5 µM ([3]; 2.5 μM, read-out: % of Control): 46%
remaining activity at 5 µM ([3]; 5.0 μM, read-out: % of Control): 57%
remaining activity at 7.5 µM ([3]; 7.5 μM, read-out: % of Control): 40%
remaining activity at 10 µM ([3]; 10 μM, read-out: % of Control): 23%
remaining activity at 25 µM ([3]; 25 μM, read-out: % of Control): 4%
remaining activity at 50 µM ([3]; 50 μM, read-out: % of Control): 0%
remaining activity at 75 µM ([3]; 75 μM, read-out: % of Control): 0%
remaining activity at 100 µM ([3]; 100 μM, read-out: % of Control): 0%
pIC50 ([3]; [α-32P]dATP 3.12 μM, TTP and dGTP 1 mM): 5.10
Inhibition of 293 cell telomerase, modified assay [3]: concentration-dependent inhibition
pIC50 [5]: 4.11
pIC50 [4, 8]: 4.23 and > 4.00
Inhibition of 293 Telomerase, Conventional Assay *dGTP [4]: concentration-dependent inhibition
SMILES: Nc1ncnc2c1ccn2[C@H]1C[C@H](O)[C@@H](COP(=O)(O)OP(=O)(O)OP(=O)(O)O)O1 [NA023, 7-Deaza-2′-Deoxyadenosine-5′-Triphosphate]
Substrate of 293 Telomerase [2]: Is a substrate Produces short telomere Substrate Inhibition
